Results reported in patent publication US6699983B1, “Integrin-linked kinase and its uses” (Sunnybrook Health Sciences Centre, priority 1995, dated 2004).

Key:
ILK [1] = assay: ILK activation by insulin in IEC-18 cells (immune complex kinase assay, MBP substrate); type: cell-based, rat; conditions: quiescent, serum-starved IEC-18 cells
Method: Assessment of ILK activation by insulin on IEC-18 cells. IEC 18 cells are rat colon epithelial cells that are cultured routinely in α-MEM medium supplemented with insulin (10 mg/liter), glucose 3.6 g/liter, and 5% FCS. When IEC 18 cells are grown to 80% confluence, they are serum starved for 18 hours prior to activation by insulin. Before addition of insulin, media are removed and 4 ml of α-MEM+insulin 6 μM is added to the 100 mm dishes. P13 kinase inhibitors such as LY294002 at 50 μM or wortmannin at 200 nM are added optionally to block P13 kinase dependent ILK activation. At the designated times, dishes are washed 3× with ice cold PBS and cells are lysed in 500 μl lysis buffer: 150 mM NaCI, 1% NP-40, 0.5% sodium deoxycholate, 50 mM Hepes pH 7.5, 10 μg/ml leupeptin, 1 mM PMSF, 2.5 μl aprotinin/mi lysis buffer, NaF 5 mM, Sodium vanadate 1 mM. After assessment of protein concentration by Bradford assay, 500 μl samples containing 200 μg of proteins are incubated for 2 hrs at 4° C. with 20 μl of Protein A-Sepharose to preadsorb the non specific kinases. The lysate is then incubated overnight with 2 μg of rabbit anti ILK antiserum at 4° C. under rotation.
The immunocomplexes are then captured by incubating the lysate with 15 μl of Protein A Sepharose for 2 hrs at 4° C. […] Phosphorylation level of MBP is assessed by phosphorimager analysis or exposure to an X ray film.

ILK [2] = target: T1, ILK (Homo sapiens, UniProt Q13418); assay: Regulation of ILK kinase by phosphoinositides in vitro (ILK5-GST, MBP substrate); type: biochemical; conditions: lipid vesicles with phosphatidylserine and phosphatidylcholine, 30° C.
T1 construct: GST
T1 sequence (Q13418 1-452): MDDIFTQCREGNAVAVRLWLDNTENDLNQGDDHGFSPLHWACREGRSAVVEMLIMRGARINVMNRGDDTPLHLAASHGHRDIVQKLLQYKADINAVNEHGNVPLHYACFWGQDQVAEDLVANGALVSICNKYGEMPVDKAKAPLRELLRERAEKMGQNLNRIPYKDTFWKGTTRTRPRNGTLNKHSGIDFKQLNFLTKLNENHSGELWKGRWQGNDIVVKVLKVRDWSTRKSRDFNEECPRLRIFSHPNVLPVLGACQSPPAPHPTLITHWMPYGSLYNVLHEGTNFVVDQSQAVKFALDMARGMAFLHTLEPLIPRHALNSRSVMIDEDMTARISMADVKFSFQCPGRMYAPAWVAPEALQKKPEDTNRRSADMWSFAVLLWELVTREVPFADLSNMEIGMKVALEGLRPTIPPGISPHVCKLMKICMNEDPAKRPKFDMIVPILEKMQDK
Method: Assessment of regulation of ILK kinase by phosphoinositides. Ptdlns(3)P, Ptdins(3,4)P2 and Ptdlns(3,4,5)P3 were dried under nitrogen and resuspended at 0.1 mM in Hepes 10 mM, pH 7. 0 with phosphatidylserineand phosphatidylcholine, both at 1 mM. The lipid suspensions were vortexed and further sonicated for 20 min in order to generate unilamellar vesicles. 11 μl of ILK5-GST in kinase buffer were combined to 4 μl of lipids and 25 μl of kinase reaction solution containing 2.5 μl of MBP and 5 μCi of γ^32 P-ATP. The reaction proceeded for […] at 30° C. The reaction was stopped by adding an equal volume of 2× sample buffer. The samples were run on a 12% non reducing SDS-PAGE gel.

Substance | stimulation of ILK activity (ILK [1]) | ILK activity in vitro in the presence of phosphoinositide (ILK [2])
insulin | rapidly stimulated | –
phosphatidylinositol (3,4,5) trisphosphate [Ptdlns(3,4,5)P3] | – | stimulated
phosphatidylinositol(3) monophosphate [Ptdlns(3)P] | – | not
phosphatidylinositol(3,4) bisphosphate [Ptdlns(3,4)P2] | – | not
